Target: T1, HIV integrase (Human immunodeficiency virus type 1 group M subtype B, UniProt P12497, F1332H)
T1 construct: HIV integrase full length gene; made in house; host or cells: Escherichia coli BL21(DE3)
Experiment: Determination of enzyme (HIV integrase) inhibitory activity
Assay type: biochemical, HIV (Human Immunodeficiency Virus (type 1))
Settings: recombinant integrase protein (F185H), strand transfer plate assay, absorbance at 450 nm
Description: The following explains evaluation methods of the HIV integrase inhibitory activity of the compound of the present invention.
(i) Construction of Recombinant Integrase Gene Expression System
HIV integrase full length gene (J. Virol., 67, 425-437 (1993)) in which phenylalanine at codon 185 was substituted by histidine, was inserted between the restriction enzyme NdeI and XhoI sites of plasmid pET21a(+) (Novagen), whereby an integrase expression vector pET21a-IN-F185H was constructed.
(ii) Production and Purification of Integrase Protein
Escherichia coli recombinant BL21(DE3) transformed with plasmid pET21a-IN-F185H obtained in (i) was shake cultured at 30° C. in a liquid medium containing ampicillin. When the culture reached the logarithmic growth phase, isopropyl-β-D-thiogalactopyranoside was added to promote expression of integrase gene. The culture was continued for 3 hr to promote accumulation of the integrase protein. The recombinant E. coli was collected in pellets by centrifugal separation and preserved at −80° C.
The E. coli was suspended in Lysis buffer ([…] HEPES (pH 7.5), 5 mM DTT, 10 mM CHAPS, 10% glycerol) containing 1M sodium chloride and subjected to repeat pressurization and depressurization for rupture, and centrifugal separation at 4° C., 40,000×g, 60 min to recover a water-soluble fraction (supernatant). This was diluted 10-fold with Lysis buffer free of sodium chloride, mixed with SP-Sepharose (GE healthcare Bioscience) and stirred at 4° C. for 60 min to allow adsorption of integrase protein to the resin. The resin was washed with Lysis buffer containing 100 mM sodium chloride and the integrase protein was eluted with Lysis buffer containing 1M sodium chloride.
The eluted integrase protein solution was subjected to a Superdex 75 (GE healthcare Bioscience) column for gel filtration. The protein was eluted with Lysis buffer containing 1M sodium chloride.
The obtained fractions of the integrase protein were collected and preserved at −80° C.
(iii) Preparation of DNA Solution
The following DNA synthesized by Greiner or FASMAC was dissolved in TE buffer (10 mM Tris-hydrochloric acid (pH 8.0), 1 mM EDTA) and mixed with donor DNA, target DNA, and each complementary strand (+ and − strands) to 1 μM. The mixture was heated at 95° C. for 5 min, 80° C. for 10 min, 70° C. for 10 min, 60° C. for 10 min, 50° C. for 10 min and 40° C. for 10 min and kept at 25° C. to give a double stranded DNA, which was used for the test.
(iv) Determination of Enzyme (HIV Integrase) Inhibitory Activity
The donor DNA was diluted with TE buffer to 10 nM (or 5 nM), of which 50 μl was added to each well of streptavidin-coated microtiter plate (Roche) and allowed to adsorb at 37° C. for 60 min. The plate was washed with phosphate buffer (Dulbecco's PBS, Sanko Junyaku Co., Ltd.) containing 0.1% Tween 20 and phosphate buffer. Then, an enzyme reaction mixture (70 μl), a test substance (10 μl) diluted with the enzyme reaction mixture and 100 μg/ml (or 64 μg/ml (2 μM)) integrase protein (10 μl) were added to each well and reacted at 37° C. for 60 min.
Composition of the enzyme reaction mixture: 30 mM MOPS (3-morpholinopropanesulfonic acid), 5 mM magnesium chloride, 3 mM DTT (dithiothreitol), 0.1 mg/ml BSA (bovine serum albumin), 5% glycerol, 10% DMSO (dimethyl sulfoxide), 0.01% Tween 20.
Then, 50 nM (or 25 nM) target DNA (10 μl) was added, reacted at 37° C. for 10 min and washed with phosphate buffer containing 0.1% Tween 20 to stop the reaction.
Then, 100 mU/ml peroxidase labeled anti-digoxigenin antibody solution (Roche, 100 μl) was added, and the mixture was reacted at 37° C. for 60 min, followed by washing with phosphate buffer containing 0.1% Tween 20.
A peroxidase color solution (Bio Rad, 100 μl) was added and allowed to react at room temperature for 4 min (or 3 min). The color reaction was stopped by adding IN sulfuric acid (100 μl). The absorbance at 450 nm was measured. […]

`COc1cc2c(cc1Cc1cc(-c3noc(C)n3)cc(Cl)c1F)c(=O)c(C(=O)O)cn2[C@H](CO)C(C)C` [Example 57, 6-[3-chloro-2-fluoro-5-(5-methyl-1,2,4-oxadiazol-3-yl)benzyl]-1-((S)-1-hydroxymethyl-2-methylpropyl)-7-methoxy-4-oxo-1,4-dihydroquinoline-3-carboxylic acid] and `COc1cc2c(cc1Cc1cc(-c3ccccn3)cc(Cl)c1F)c(=O)c(C(=O)O)cn2[C@H](CO)C(C)C` [Example 36, 6-[3-chloro-2-fluoro-5-(pyridin-2-yl)benzyl]-1-((S)-1-hydroxymethyl-2-methylpropyl)-7-methoxy-4-oxo-1,4-dihydroquinoline-3-carboxylic acid] cannot be ordered by IC50: under 10 nM for the first, under 10 nM for the second.

`COc1cc2c(cc1Cc1cc(N3CC[C@@H](O)C3)cc(Cl)c1F)c(=O)c(C(=O)O)cn2[C@H](CO)C(C)C` [Example 8, 6-[3-chloro-2-fluoro-5-((R)-3-hydroxypyrrolidin-1-yl)benzyl]-1-((S)-1-hydroxymethyl-2-methylpropyl)-7-methoxy-4-oxo-1,4-dihydroquinoline-3-carboxylic acid] and `COc1cc2c(cc1Cc1cc(N3CC[C@@H](F)C3)cc(Cl)c1F)c(=O)c(C(=O)O)cn2[C@H](CO)C(C)C` [Example 13, 6-[3-chloro-2-fluoro-5-((R)-3-fluoropyrrolidin-1-yl)benzyl]-1-((S)-1-hydroxymethyl-2-methylpropyl)-7-methoxy-4-oxo-1,4-dihydroquinoline-3-carboxylic acid] cannot be ordered by IC50: under 10 nM for the first, under 10 nM for the second.

`COc1cc2c(cc1Cc1cc(N3CCCC3=O)cc(Cl)c1F)c(=O)c(C(=O)O)cn2[C@H](CO)[C@@H](C)OC` [Example 48, 6-[3-chloro-2-fluoro-5-(2-oxopyrrolidin-1-yl)benzyl]-1-((1R,2R)-1-hydroxymethyl-2-methoxypropyl)-7-methoxy-4-oxo-1,4-dihydroquinoline-3-carboxylic acid] and `COc1cc2c(cc1Cc1cc(N3CCCC3=O)cc(Cl)c1F)c(=O)c(C(=O)O)cn2[C@H](CO)C(C)C` [Example 2, 6-[3-chloro-2-fluoro-5-(2-oxopyrrolidin-1-yl)benzyl]-1-((S)-1-hydroxymethyl-2-methylpropyl)-7-methoxy-4-oxo-1,4-dihydroquinoline-3-carboxylic acid] cannot be ordered by IC50: under 10 nM for the first, under 10 nM for the second.

First: CCc1cc2c(cc1Cc1cc(N3CCCC3=O)c(F)c(Cl)c1F)c(=O)c(C(=O)O)cn2[C@H](CO)C(C)(C)C [Example 55, 6-[3-chloro-2,4-difluoro-5-(2-oxopyrrolidin-1-yl)benzyl]-7-ethyl-1-((S)-1-hydroxymethyl-2,2-dimethylpropyl)-4-oxo-1,4-dihydroquinoline-3-carboxylic acid]
Second: CC(C)(C)[C@@H](CO)n1cc(C(=O)O)c(=O)c2cc(Cc3cc(N4CCCC4=O)c(F)c(Cl)c3F)ccc21 [Example 54, 6-[3-chloro-2,4-difluoro-5-(2-oxopyrrolidin-1-yl)benzyl]-1-((S)-1-hydroxymethyl-2,2-dimethylpropyl)-4-oxo-1,4-dihydroquinoline-3-carboxylic acid]
The IC50 of the first is higher: 10 to 100 nM for the first, under 10 nM for the second. The second is the more potent here.

`CCc1cc2c(cc1Cc1cc(N3CCOCC3)cc(Cl)c1F)c(=O)c(C(=O)O)cn2[C@H](CO)C(C)C` [Example 23, 6-[3-chloro-2-fluoro-5-(morpholin-4-yl)benzyl]-7-ethyl-1-((S)-1-hydroxymethyl-2-methylpropyl)-4-oxo-1,4-dihydroquinoline-3-carboxylic acid] and `CCc1cc2c(cc1Cc1cc(N3CCOCC3)cc(Cl)c1F)c(=O)c(C(=O)O)cn2[C@H](CO)[C@@H](C)OC` [Example 34, 6-[3-chloro-2-fluoro-5-(morpholin-4-yl)benzyl]-7-ethyl-1-((1R,2R)-1-hydroxymethyl-2-methoxypropyl)-4-oxo-1,4-dihydroquinoline-3-carboxylic acid] cannot be ordered by IC50: under 10 nM for the first, under 10 nM for the second.

`COc1cc2c(cc1Cc1cc(N3CCOCC3)cc(Cl)c1F)c(=O)c(C(=O)O)cn2[C@H](CO)C(C)(C)OC` [Example 42, 6-[3-chloro-2-fluoro-5-(morpholin-4-yl)benzyl]-1-((R)-1-hydroxymethyl-2-methoxy-2-methylpropyl)-7-methoxy-4-oxo-1,4-dihydroquinoline-3-carboxylic acid] and `COc1cc2c(cc1Cc1cc(N3CCOCC3)cc(Cl)c1F)c(=O)c(C(=O)O)cn2[C@H](CO)C(C)C` [Example 5, 6-[3-chloro-2-fluoro-5-(morpholin-4-yl)benzyl]-1-((S)-1-hydroxymethyl-2-methylpropyl)-7-methoxy-4-oxo-1,4-dihydroquinoline-3-carboxylic acid] cannot be ordered by IC50: under 10 nM for the first, under 10 nM for the second.

`CC(C)(C)[C@@H](CO)n1cc(C(=O)O)c(=O)c2cc(Cc3cc(N4CCOCC4)cc(Cl)c3F)ccc21` [Example 53, 6-[3-chloro-2-fluoro-5-(morpholin-4-yl)benzyl]-1-((S)-1-hydroxymethyl-2,2-dimethylpropyl)-4-oxo-1,4-dihydroquinoline-3-carboxylic acid] and `CCOC[C@@H](CO)n1cc(C(=O)O)c(=O)c2cc(Cc3cc(N4CCOCC4)cc(Cl)c3F)c(OC)cc21` [Example 19, 6-[3-chloro-2-fluoro-5-(morpholin-4-yl)benzyl]-1-((R)-1-ethoxymethyl-2-hydroxyethyl)-7-methoxy-4-oxo-1,4-dihydroquinoline-3-carboxylic acid] cannot be ordered by IC50: under 10 nM for the first, under 10 nM for the second.

`CCOC[C@@H](CO)n1cc(C(=O)O)c(=O)c2cc(Cc3cc(N4CCOCC4)cc(Cl)c3F)c(CC)cc21` [Example 1, 6-[3-chloro-2-fluoro-5-(morpholin-4-yl)benzyl]-1-((R)-1-ethoxymethyl-2-hydroxyethyl)-7-ethyl-4-oxo-1,4-dihydroquinoline-3-carboxylic acid] and `CCOC[C@@H](CO)n1cc(C(=O)O)c(=O)c2cc(Cc3cc(N4CCCC4=O)cc(Cl)c3F)c(OC)cc21` [Example 39, 6-[3-chloro-2-fluoro-5-(2-oxopyrrolidin-1-yl)benzyl]-1-((R)-1-ethoxymethyl-2-hydroxyethyl)-7-methoxy-4-oxo-1,4-dihydroquinoline-3-carboxylic acid] cannot be ordered by IC50: under 10 nM for the first, under 10 nM for the second.

`COc1cc2c(cc1Cc1cc(N3CCCCC3=O)cc(Cl)c1F)c(=O)c(C(=O)O)cn2[C@H](CO)C(C)C` [Example 7, 6-[3-chloro-2-fluoro-5-(2-oxopiperidin-1-yl)benzyl]-1-((S)-1-hydroxymethyl-2-methylpropyl)-7-methoxy-4-oxo-1,4-dihydroquinoline-3-carboxylic acid] and `COc1cc2c(cc1Cc1cc(N3CCOC3=O)cc(Cl)c1F)c(=O)c(C(=O)O)cn2[C@H](CO)C(C)C` [Example 4, 6-[3-chloro-2-fluoro-5-(2-oxooxazolidin-3-yl)benzyl]-1-((S)-1-hydroxymethyl-2-methylpropyl)-7-methoxy-4-oxo-1,4-dihydroquinoline-3-carboxylic acid] cannot be ordered by IC50: under 10 nM for the first, under 10 nM for the second.

`COCC[C@@H](CO)n1cc(C(=O)O)c(=O)c2cc(Cc3cc(N4CCCC4=O)cc(Cl)c3F)c(OC)cc21` [Example 47, 6-[3-chloro-2-fluoro-5-(2-oxopyrrolidin-1-yl)benzyl]-1-((S)-1-hydroxymethyl-3-methoxypropyl)-7-methoxy-4-oxo-1,4-dihydroquinoline-3-carboxylic acid] gave an IC50 of 10 to 100 nM.
